Patent US6737383B1, “Herbicidal oxadiazolidines” (priority 1999, dated 2004)

Legend:
[1] = tested on: sugar beet; experiment: Test B pre/postemergence sugar beet; type: in vivo, Beta vulgaris
Procedure, shortened: (§1)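 Response is a visual 0-to-10 score relative to untreated plants, where 0 means no effect and 10 means complete control, taken twelve to sixteen days after application. Treatments went onto soil at planting and onto foliage of 1- to 4-leaf plants, using a surfactant-containing non-phytotoxic solvent.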

[2] = tested on: giant foxtail; experiment: Test B pre/postemergence giant foxtail; type: in vivo, Setaria faberii
Procedure, shortened: as §1

[3] = tested on: cocklebur; experiment: Test B pre/postemergence cocklebur; type: in vivo, Xanthium strumarium
Procedure, shortened: as §1

[4] = tested on: duck salad; experiment: Test B flood test duck salad; type: in vivo, Heteranthera limosa
Procedure, shortened: (§2)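 Each value is a visual injury score relative to controls, with 10 meaning complete control and 0 no effect. Evaluation took place twelve to sixteen days after the 2-leaf-stage plants were treated and kept in the greenhouse.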

[5] = tested on: soybean; experiment: Test B pre/postemergence soybean; type: in vivo, Glycine max
Procedure, shortened: as §1

[6] = tested on: rape; experiment: Test B pre/postemergence rape; type: in vivo, Brassica napus
Procedure, shortened: as §1

[7] = tested on: crabgrass; experiment: Test B pre/postemergence crabgrass; type: in vivo, Digitaria sanguinalis
Procedure, shortened: as §1

[8] = tested on: wheat; experiment: Test B pre/postemergence wheat; type: in vivo, Triticum aestivum
Procedure, shortened: as §1

[9] = tested on: pigweed; experiment: Test B pre/postemergence pigweed; type: in vivo, Amaranthus retroflexus
Procedure, shortened: as §1

[10] = tested on: purple nutsedge; experiment: Test B pre/postemergence purple nutsedge; type: in vivo, Cyperus rotundus
Procedure, shortened: as §1

[11] = tested on: bamyardgrass; experiment: Test B flood test barnyardgrass; type: in vivo, Echinochloa crus-galli
Procedure, shortened: as §2

[12] = tested on: morningglory; experiment: Test B pre/postemergence morningglory; type: in vivo, Ipomoea hederacea
Procedure, shortened: as §1

[13] = tested on: velvetleaf; experiment: Test B pre/postemergence velvetleaf; type: in vivo, Abutilon theophrasti
Procedure, shortened: as §1

[14] = tested on: blackgrass; experiment: Test B pre/postemergence blackgrass; type: in vivo, Alopecurus myosuroides
Procedure, shortened: as §1

[15] = tested on: corn; experiment: Test B pre/postemergence corn; type: in vivo, Zea mays
Procedure, shortened: as §1

[16] = tested on: surinam grass; experiment: Test B pre/postemergence surinam grass; type: in vivo, Brachiaria decumbens
Procedure, shortened: as §1

[17] = tested on: rice; experiment: Test B flood test rice; type: in vivo, Oryza sativa
Procedure, shortened: as §2

[18] = tested on: wild oat; experiment: Test B pre/postemergence wild oat; type: in vivo, Avena fatua
Procedure, shortened: as §1

[19] = tested on: smallflower flatsedge; experiment: Test B flood test smallflower flatsedge; type: in vivo, Cyperus difformis
Procedure, shortened: as §2

[20] = Postemergence, Rate 62 g/ha, scale 0 to 10, 0 is no effect, 10 is complete control
[21] = Postemergence, Rate 125 g/ha, scale of 0 to 10 where 0 is no effect and 10 is complete control
[22] = Preemergence, Rate 62 g/ha, scale of 0 to 10 where 0 is no effect and 10 is complete control
[23] = Preemergence, Rate 125 g/ha, scale of 0 to 10 where 0 is no effect and 10 is complete control
[24] = Preemergence, Rate 250 g/ha, scale 0 to 10 (0 no effect, 10 complete control)
[25] = Preemergence, Rate 500 g/ha, scale of 0 to 10 where 0 is no effect and 10 is complete control
[26] = Rate 500 g/ha, Postemergence, scale 0 to 10, 0 is no effect, 10 is complete control
[27] = Postemergence, Rate 250 g/ha, scale of 0 to 10, 0 is no effect, 10 is complete control
[28] = Rate 62 g/ha, flood test species, Pre-emergence, visual evaluation after twelve to sixteen days
[29] = Rate 125 g/ha, under heading Pre-emergence, flood test species, visual evaluation after twelve to sixteen days
[30] = Rate 250 g/ha, Pre-emergence (flood test species), scale 0 to 10, 0 is no effect, 10 is complete control
[31] = Rate 500 g/ha, Pre-emergence section of Table B, 0 to 10 scale (0 no effect, 10 complete control)

C#CC(C)n1c(=O)on(C(=O)N(c2ccc(F)cc2F)C(C)C)c1=O (racemic) [Compound 657]
0: Plant response rating, Sugarbeets [1, 20] | Sugarbeets plant response rating [1, 21] | Plant response rating, Cocklebur [3, 20] | Cocklebur plant response rating [3, 22] | Cocklebur plant response rating [3, 23] | Plant response rating, Ducksalad (0 to 10 scale, 0 is no effect, 10 is complete control) [4, 28] | Ducksalad plant response rating (0 to 10 scale, 0 is no effect, 10 is complete control) [4, 29] | Ducksalad plant response rating [4, 30] | Ducksalad plant response rating [4, 31] | Soybean plant response rating [5, 22] | Soybean plant response rating [5, 23] | Plant response rating, Rape [6, 20] | Plant response rating, Wheat [8, 20] | Wheat plant response rating [8, 21] | Wheat plant response rating [8, 22] | Wheat plant response rating [8, 23] | Plant response rating, Wheat [8, 24] | Plant response rating, Redroot pigweed [9, 20] | Nutsedge plant response rating [10, 22] | Nutsedge plant response rating [10, 23] | Plant response rating, Barnyardgrass (0 to 10 scale, 0 is no effect, 10 is complete control) [11, 28] | Barnyardgrass plant response rating (0 to 10 scale, 0 is no effect, 10 is complete control) [11, 29] | Barnyardgrass plant response rating [11, 30] | Barnyardgrass plant response rating [11, 31] | Corn plant response rating [15, 22] | Plant response rating, B. signalgrass [16, 20] | Plant response rating, Rice (0 to 10 scale, 0 is no effect, 10 is complete control) [17, 28] | Rice plant response rating (0 to 10 scale, 0 is no effect, 10 is complete control) [17, 29] | Rice plant response rating [17, 30] | Rice plant response rating [17, 31] | Plant response rating, S. Flatsedge (0 to 10 scale, 0 is no effect, 10 is complete control) [19, 28] | S. Flatsedge plant response rating (0 to 10 scale, 0 is no effect, 10 is complete control) [19, 29] | S. Flatsedge plant response rating [19, 30] | S. Flatsedge plant response rating [19, 31]
6: Plant response rating, Nutsedge [10, 25] | Plant response rating, Morningglory [12, 25] | Plant response rating, Blackgrass [14, 20] | B. signalgrass plant response rating [16, 26] | Wild oats plant response rating [18, 23]
1: Plant response rating, Soybean [5, 20] | Soybean plant response rating [5, 21] | Morningglory plant response rating [12, 22] | Morningglory plant response rating [12, 23] | Plant response rating, Corn [15, 20] | Corn plant response rating [15, 21] | Corn plant response rating [15, 27] | Corn plant response rating [15, 23] | Corn plant response rating [15, 26] | Plant response rating, Wild oats [18, 20]
9: Plant response rating, Sugarbeets [1, 25] | Plant response rating, Giant foxtail [2, 24] | Plant response rating, Giant foxtail [2, 25] | Crabgrass plant response rating [7, 27] | Plant response rating, Crabgrass [7, 24] | Plant response rating, Crabgrass [7, 25] | Crabgrass plant response rating [7, 26] | Morningglory plant response rating [12, 26] | Blackgrass plant response rating [14, 23] | Plant response rating, Blackgrass [14, 25] | Plant response rating, B. signalgrass [16, 24]
5: Plant response rating, Giant foxtail [2, 20] | Cocklebur plant response rating [3, 26] | Wheat plant response rating [8, 26] | Plant response rating, Nutsedge [10, 24] | Morningglory plant response rating [12, 21] | Morningglory plant response rating [12, 27] | Blackgrass plant response rating [14, 22]
8: Giant foxtail plant response rating [2, 21] | Giant foxtail plant response rating [2, 26] | Crabgrass plant response rating [7, 21] | Plant response rating, Velvetleaf [13, 24] | Blackgrass plant response rating [14, 21] | Blackgrass plant response rating [14, 27] | Blackgrass plant response rating [14, 26] | Plant response rating, Corn [15, 25] | B. signalgrass plant response rating [16, 23] | Plant response rating, Wild oats [18, 24] | Plant response rating, Wild oats [18, 25]
7: Sugarbeets plant response rating [1, 22] | Sugarbeets plant response rating [1, 23] | Giant foxtail plant response rating [2, 27] | Plant response rating, Wheat [8, 25] | Redroot pigweed plant response rating [9, 22] | Redroot pigweed plant response rating [9, 26] | Plant response rating, Blackgrass [14, 24]
4: Cocklebur plant response rating [3, 27] | Plant response rating, Morningglory [12, 24] | Velvetleaf plant response rating [13, 23] | Velvetleaf plant response rating [13, 26] | B. signalgrass plant response rating [16, 27]
2: Cocklebur plant response rating [3, 21] | Plant response rating, Cocklebur [3, 24] | Plant response rating, Cocklebur [3, 25] | Rape plant response rating [6, 21] | Redroot pigweed plant response rating [9, 21] | Plant response rating, Morningglory [12, 20] | Plant response rating, Velvetleaf [13, 20] | Plant response rating, B. signalgrass [16, 21] | B. signalgrass plant response rating [16, 22] | Wild oats plant response rating [18, 21] | Wild oats plant response rating [18, 26]
10: Plant response rating, Sugarbeets [1, 24] | Giant foxtail plant response rating [2, 22] | Giant foxtail plant response rating [2, 23] | Plant response rating, Rape [6, 24] | Plant response rating, Rape [6, 25] | Crabgrass plant response rating [7, 23] | Redroot pigweed plant response rating [9, 23] | Plant response rating, Redroot pigweed [9, 24] | Plant response rating, Redroot pigweed [9, 25] | Plant response rating, Velvetleaf [13, 25] | Plant response rating, B. signalgrass [16, 25]
3: Sugarbeets plant response rating [1, 26] | Plant response rating, Soybean [5, 25] | Rape plant response rating [6, 22] | Rape plant response rating [6, 23] | Rape plant response rating [6, 26] | Plant response rating, Crabgrass [7, 20] | Crabgrass plant response rating [7, 22] | Nutsedge plant response rating [10, 21] | Velvetleaf plant response rating [13, 21] | Velvetleaf plant response rating [13, 22] | Wild oats plant response rating [18, 22]
